Assay results published in US9532983B2, “Benzofuran compounds, compositions, kits and/or methods thereof” (Savannah State University, priority 2013, dated 2017).
“Also recorded” adds a separate entry of the source.

What was measured:
5-HT2A = target: T1, 5-HT2A (Homo sapiens, UniProt P28223); assay: Primary binding assay at non-sigma receptors: 5-HT2A; settings: 10 μM (final) assay concentration
T1 construct: expressed in transfected cells
Experimental: Initial primary binding screening assays were performed using a 50 μM (initial)−10 μM (final) assay concentration of reference and test compounds.

[1] = Cell viability assay (MTT) in MA-10 cells; type: cell-based, mouse; settings: mouse, MA-10 Leydig cells, read-out: decrease in cell viability
Experimental: (§1) Mouse Leydig cell line (MA-10) was grown in Waymouth media containing 15% horse serum, 5% fetal bovine serum, and 1× gentamycin, which was replaced with […] G418 (geneticin) for VDAC1 knockdown (ΔVDAC1) MA10 cells. Cells were maintained at 37° C. in a humidified incubator under 5% CO2. To isolate mitochondria, cells were removed from tissue culture plates by gentle scrapping in phosphate-buffered saline at room temperature, incubated in hypotonic buffer (10 mM HEPES, pH 7.4) for 30 to 40 min, and mitochondria were isolated following readily available procedures. The mitochondrial preparation was verified by Western blotting with the cytochrome P450 SCC enzyme (Corgen, Tapai, Taiwan) and calnexin antibodies (Santa Cruz Biotechnology, Inc., Santa Cruz, Calif.).
Stock solutions (1 mM) of the ligands were made in 1× phosphate buffered saline, filter-sterilized, and then further diluted up to 1 μM with serum-free medium. Cell viability was determined by the 3-[4,5-dimethylthiazol-2yl]-2,5-diphenyltetrazolium bromide assay using a commercially available kit following the manufacturer's instructions (Promega, Madison, Wis.). MA-10 cells were plated in a 96-well plate at an initial density of 4×10^3 cells per well for 24 h at 37° C. in 5% CO2 atm. After 24 h of serum starvation, the culture media were changed to serum-free media containing 1, 5, 10, 50, and 100 nM concentration for each KSCM ligand. Next, the cells were incubated for 2 to 3 h with 0.5 mg/ml of 3-[4,5-dimethylthiazol-2yl]-2,5-diphenyltetrazolium bromide reagent and lysed with dimethyl sulfoxide, and the absorbance was measured at 550 nm (FlexStation 3; Molecular Devices, Sunnyvale, Calif.).

σ1 receptor = assay: Western blot, expression of σ1 receptor in MA-10 cells; type: cell-based, mouse; settings: 24 h, increasing concentrations
Experimental: Cells were maintained at 37° C. in a humidified incubator under 5% CO2. To isolate mitochondria, cells were removed from tissue culture plates by gentle scrapping in phosphate-buffered saline at room temperature, incubated in hypotonic buffer (10 mM HEPES, pH 7.4) for 30 to 40 min, and mitochondria were isolated following readily available procedures. The mitochondrial preparation was verified by Western blotting with the cytochrome P450 SCC enzyme (Corgen, Tapai, Taiwan) and calnexin antibodies (Santa Cruz Biotechnology, Inc., Santa Cruz, Calif.).
(§2) The membrane was blocked with 3% nonfat dry milk for 45 min, probed overnight with the primary antibodies, and then incubated with […] goat anti-rabbit or anti mouse IgG (Thermo Fisher Scientific, Waltham, Mass.). Signals were developed with chemiluminescent reagent (Thermo Fisher Scientific). For loading control of all Western blots, the membrane was stained with β-actin antibody, which was previously independently stained with StAR or 3-β-hydroxysteroid dehydrogenase (3βHSD2) or VDAC1 and VDAC2 antiserum. The band intensity was determined by using Image Quant 5.2 (Phosphorimager; GE Healthcare, Chalfont St. Giles, Buckinghamshire, UK). Densitometric calculation may reflect the ratio of σ1 or VDAC2 and β-actin following an established procedure that is readily available.
(§3) In addition, VDAC2 antibody (FIG. 3E) was used to probe and was compared with β-actin expression (FIG. 3F) of the same membrane.

VDAC2 = assay: Western blot / densitometry, expression of VDAC2 in MA-10 cells; type: cell-based, mouse; settings: increasing concentrations
Experimental: as §1
as §2, with “Protein (12.5 μg) was separated by 15% SDS-polyacrylamide gel electrophoresis and transferred to a polyvinylidinedifluoride membrane (Millipore Corporation, Billerica, Mass.). The membrane” for “The membrane”
as §3

StAR = assay: Western blot, expression of StAR in MA-10 cells; type: cell-based, mouse
Experimental: as §1
as §2, with “Protein (12.5 μg) was separated by 15% SDS-polyacrylamide gel electrophoresis and transferred to a polyvinylidinedifluoride membrane (Millipore Corporation, Billerica, Mass.). The membrane” for “The membrane”
The role of KSCM ligands on the expression of StAR in MA-10 cells was evaluated. In all the cases studied, both the 37-kDa unimported and the 30-kDa mitochondrial-imported, mature protein, were observed but not the 32-kDa transient intermediate protein. The same membrane was probed first with StAR antibody and then with β-actin antibody independently. […] Coimmunoprecipitation experiments were performed to determine whether there was a direct interaction between σ1 receptor and StAR or VDAC2. […] StAR is a 37-kDa protein and thus it is higher than the 28-kDa σ1 (FIG. 5A), confirming that StAR interaction with the σ1 receptor.

[2] = system: mitochondria from steroidogenic MA-10 cells; assay: Metabolic conversion of [3H]pregnenolone to progesterone in isolated MA-10 mitochondria; type: biochemical, mouse
Experimental: as §1
To measure the conversion of [^3H]pregnenolone to [^3H]progesterone, isolated mitochondria from steroidogenic MA-10 cells (300 μg) were incubated in phosphate buffer along with the substrate, and the reaction was initiated by the NAD. For metabolic conversion of [^14C]cholesterol to pregnenolone, the reaction was initiated by the addition of NADPH, and for complete conversion we used 5-fold excess of cold carrier to reach the saturation point. The steroids were extracted with ether/acetone (9:1 v/v), and equal amounts of a cold pregnenolone-progesterone (50:50; Sigma, St. Louis, Mo.) mixture in CH2C12 was added as a carrier. The extracts were concentrated under a stream of nitrogen or air and then separated by thin-layer chromatography (TLC) (Whatman, Clifton, N.J.) using a chloroform/ethyl acetate (3:1) mobile phase.
Given the potential role of σ1 in steroidogenesis (FIG. 4A), we performed conversion assays in the presence of three sigma receptor ligands. […] The possibility exists that the σ1 receptor transiently interacts with the OMM-associated porins. As such, the increased levels of σ1 receptor with KSCM-11 may enhance the transport of substrate cholesterol into the mitochondria, thereby increasing progesterone synthesis.

[3] = higher concentrations than 10 nM

T1 sequence (P28223 whole entry): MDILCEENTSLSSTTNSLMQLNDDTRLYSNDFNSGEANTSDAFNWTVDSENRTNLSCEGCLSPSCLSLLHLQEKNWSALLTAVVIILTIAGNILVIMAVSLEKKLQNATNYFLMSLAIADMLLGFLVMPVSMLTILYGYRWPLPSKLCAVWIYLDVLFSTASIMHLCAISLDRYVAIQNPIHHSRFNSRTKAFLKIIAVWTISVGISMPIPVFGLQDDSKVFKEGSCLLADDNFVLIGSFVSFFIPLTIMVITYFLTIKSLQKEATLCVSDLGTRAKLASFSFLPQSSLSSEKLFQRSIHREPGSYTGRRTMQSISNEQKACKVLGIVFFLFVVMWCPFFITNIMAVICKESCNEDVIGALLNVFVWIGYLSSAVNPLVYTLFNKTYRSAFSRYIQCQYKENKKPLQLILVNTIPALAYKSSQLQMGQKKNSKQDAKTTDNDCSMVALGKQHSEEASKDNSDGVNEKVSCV

Row | SMILES | inhibition at 10 µM (5-HT2A) [%] | cytotoxicity at 24 h, 1 nM [1] [%] | cytotoxicity at 24 h, 100 nM [1] [%] | expression of the σ1 receptor (in words) (σ1 receptor) | expression of VDAC2 (in words) (VDAC2) | expression of imported 30-kDa StAR (in words) (StAR) | expression of unimported 37-kDa StAR (in words) (StAR) | effect on progesterone conversion (in words) [2, 3] | effect on progesterone conversion (in words) ([2]; 10 nM) | cytotoxicity at 24 h ([1]; 1-5 nM) [%]
1 | COc1cc2oc(C(=O)N(CCCN3CCCCC3)c3ccccc3)c(C)c2cc1OC [KSCM-1, 5,6-Dimethoxy-3-methyl-N-phenyl-N-(3-(piperidin-1-yl)propyl)benzofuran-2-carboxamide] | 76.6 | 3.5 | 16 | increased expression; also recorded: increased with increasing concentrations | increased with increasing concentrations | unaffected | increased (and/or stabilized); also recorded: stabilizes the expression of unimported StAR | reduced conversion to the basal level | – | –
2 | Cc1c(C(=O)N(CCCN2CCCCC2)c2ccccc2)oc2ccccc12 [KSCM-5, 3-Methyl-N-phenyl-N-(3-(piperidin-1-yl)propyl)benzofuran-2-carboxamide] | 18.1 | 28 | 74 | increased only minimally; also recorded: remained unchanged | decreased with increasing concentrations | unchanged | not and unchanged | conversion decreased significantly | no effect | –
3 | COc1ccc2c(C)c(C(=O)N(CCCN3CCCCC3)c3ccccc3)oc2c1 [KSCM-11, 6-Methoxy-3-methyl-N-phenyl-N-(3-(piperidin-1-yl)propyl)benzofuran-2-carboxamide] | 61.2 | – | – | increased expression; also recorded: moderately increased | decreased with increasing concentrations | unchanged | not and unchanged | conversion decreased significantly | no effect | 3.3
